# Values quoted from earlier work as cited in patent publication US20100178364A1, “Dietary supplements against latent foreign DNA” (priority 2009, published 2010).
# Read-outs that look alike come from different tables or passages of the source.
# Tests used:
# [1] = test system: EBV immediate-early protein Rta
# LT1/LT2 promoter = details: BJAB cells, GA-treated vs untreated
# [2] = tested levels (3 and 4 mM)
# [3] = test system: LANA-1, v-cyclin, and v-FLIP proteins; details: KSHV positive cells (BCBL-1, BC-3, BC-1) treated 2, 3, 6 days; effect reversible
smiles,measurement,setting,value
Nc1nc(O)c2ncn(COC(CO)CO)c2n1 [ganciclovir],decrease of viral DNA load,"CMV; by day 7 of treatment, one patient",1 log
"CC(/C=C/C(=O)NO)=C\[C@@H](C)C(=O)c1ccc(N(C)C)cc1 [TSA, reference compound]",percentage of cells expressing Rta,[1]; P3HR1 cells after TSA alone (lytic cycle activator),23.4%
"CCCCCCCCCCCCCC(=O)O[C@@H]1[C@@H](C)[C@@]2(O)[C@@H](C=C(CO)C[C@]3(O)C(=O)C(C)=C[C@@H]23)[C@@H]2C(C)(C)[C@]12OC(C)=O [TPA, 12-O-tetradecanoyl-phorbol-13-acetate, reference compound]",disruption of mitochondrial membranes / DNA condensation,KSHV-positive B cells; TPA treatment (latent to lytic switch),did not disrupt the mitochondrial membranes or caused DNA condensation
"CC1(C)[C@@H](O[C@H]2O[C@H](C(=O)O)[C@@H](O)[C@H](O)[C@H]2O[C@@H]2O[C@H](C(=O)O)[C@@H](O)[C@H](O)[C@H]2O)CC[C@]2(C)[C@H]3C(=O)C=C4[C@@H]5C[C@@](C)(C(=O)O)CC[C@]5(C)CC[C@@]4(C)[C@]3(C)CC[C@@H]12 [GA, glycyrrhizic acid]",LT1/LT2 promoter activity (luciferase expression),LT1/LT2 promoter,does not affect the LT1/LT2 promoter activity
same,toxicity,[2],not being toxic at the tested levels
same,LANA-1 protein expression,[3],decreased
same,disruption of mitochondrial membranes / DNA condensation,KSHV-positive B cells; uninfected B cells,no disruptions of their mitochondrial membranes or DNA condensation
"O=C(O[C@@H]1Cc2c(O)cc(O)cc2O[C@@H]1c1cc(O)c(O)c(O)c1)c1cc(O)c(O)c(O)c1 [EGCG, Epigallocatechin gallate]",percentage of cells expressing Rta,"[1]; TSA-treated P3HR1 cells, 100 mM EGCG",0.5%
same,percentage of cells expressing Rta,"[1]; TSA-treated P3HR1 cells, EGCG",9.8%
C[C@H]1[C@H](OC(=O)CCC(=O)O)O[C@@H]2O[C@@]3(C)CC[C@H]4[C@H](C)CC[C@@H]1[C@@]24OO3 [artesunate],viral decay T ½,"CMV; CMV load kinetics during artesunate treatment, oral 100 mg/day",22 to 45.6 h
same,hematopoiesis,CMV; within 10 days,improved
